Data published in patent US20080176866A1, “NOVEL HETARYL-PHENYLENEDIAMINE-PYRIMIDINES AS PROTEIN KINASE INHIBITORS” (priority 2006, published 2008).

What was measured:
[1] = test system: human MCF7 breast tumour cells; test: MCF7 proliferation assay; type: cell-based; conditions: 96 h, 4 days incubation, crystal violet staining
Description: Cultivated human MCF7 breast tumour cells (ATCC HTB-22) were plated out in a density of 5000 cells/measurement point in 200 μl of growth medium (RPMI1640, 10% foetal calf serum, 2 mU/mL insulin, 0.1 nM oestradiol) in a 96-well multititre plate. After 24 hours, the cells from a plate (zero plate) were stained with crystal violet (see below), while the medium in the other plates was replaced by fresh culture medium (200 μl) to which the test substances had been added in various concentrations (0 μM, and in the range 0.01-30 μM; the final concentration of the solvent dimethyl sulphoxide was 0.5%). The cells were incubated in the presence of the test substances for 4 days. The cell proliferation was determined by staining the cells with crystal violet: the cells were fixed by adding 20 μl/measurement point of an 11% strength glutaraldehyde solution at room temperature for 15 min. After the fixed cells had been washed three times with water, the plates were dried at room temperature. The cells were stained by adding 100 μl/measurement point of a 0.1% strength crystal violet solution (pH adjusted to pH 3 by adding acetic acid). After the stained cells had been washed three times with water, the plates were dried at room temperature. The dye was dissolved by adding 100 μl/measurement point of a 10% strength acetic acid solution, and the extinction was determined by photometry at a wavelength of 595 nm. The percentage change in cell growth was calculated by normalizing the measurements to the extinctions of the zero point plate (=0%) and the extinction of the untreated (0 μM) cells (=100%). The IC50 values were determined by means of a 4-parameter fit using the company's own software.

CDK1/CycB = molecular target: T1, CDK1/CycB (Homo sapiens, UniProt P06493); test: CDK1/CycB kinase assay; type: biochemical; conditions: 0.5 μM ATP, histone IIIS, 33P filter assay
T1 construct: GST; purchased ProQinase GmbH, Freiburg; host or cells: baculovirus-infected insect cells (Sf9)
T1 sequence (P06493 whole entry): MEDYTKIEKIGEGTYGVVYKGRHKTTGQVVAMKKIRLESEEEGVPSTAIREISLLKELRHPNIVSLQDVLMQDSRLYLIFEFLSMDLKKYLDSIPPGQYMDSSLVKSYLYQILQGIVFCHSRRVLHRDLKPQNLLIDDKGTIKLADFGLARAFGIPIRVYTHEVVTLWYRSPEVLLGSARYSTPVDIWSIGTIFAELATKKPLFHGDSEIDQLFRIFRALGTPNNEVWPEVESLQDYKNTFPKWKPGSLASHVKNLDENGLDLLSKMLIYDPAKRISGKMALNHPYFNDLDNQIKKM
T1 sequence (P14635 whole entry partner): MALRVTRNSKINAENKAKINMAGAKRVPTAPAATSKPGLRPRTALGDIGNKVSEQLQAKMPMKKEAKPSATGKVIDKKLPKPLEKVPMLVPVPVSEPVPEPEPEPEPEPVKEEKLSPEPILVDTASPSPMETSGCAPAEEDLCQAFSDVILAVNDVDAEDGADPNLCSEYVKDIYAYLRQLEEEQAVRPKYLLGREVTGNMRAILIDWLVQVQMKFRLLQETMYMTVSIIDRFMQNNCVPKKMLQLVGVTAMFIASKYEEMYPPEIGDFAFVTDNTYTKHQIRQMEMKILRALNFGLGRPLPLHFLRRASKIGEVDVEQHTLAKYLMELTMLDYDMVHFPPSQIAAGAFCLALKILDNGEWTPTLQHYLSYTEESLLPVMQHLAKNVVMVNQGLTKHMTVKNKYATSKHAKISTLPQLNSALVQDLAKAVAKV
Description: Recombinant CDK1- and CycB-GST fusion proteins, purified from baculovirus-infected insect cells (Sf9), were purchased from ProQinase GmbH, Freiburg. The histone IIIS used as kinase substrate can be purchased from Sigma.
CDK1/CycB (5 ng/μL) was incubated in the presence of various concentrations of test substances (0 μM, and within the range 0.01-100 μM) in 40 μL of assay buffer [50 mM Tris/HCl pH 8.0, 10 mM MgCl2, 0.1 mM Na ortho-vanadate, 1.0 mM dithiothreitol, 0.025% PEG 20000, 0.5 μM ATP, 10 μM histone IIIIS, 0.2 μCi/measurement point ^33P-gamma ATP, 0.05% NP40, 1.25% dimethyl sulphoxide] at 22° C. for 10 min. The reaction was stopped by adding EDTA solution (250 mM, pH 8.0, 15 μl/measurement point).
15 μl of each reaction mixture were loaded onto P30 filter strips (from Wallac), and non-incorporated ^33P-ATP was removed by washing the filter strips three times in 0.5% strength phosphoric acid for 10 min each time. After the filter strips had been dried at 70° C. for 1 hour, the filter strips were covered with scintillator strips (MeltiLex™ A, from Wallac) and baked at 90° C. for 1 hour. The amount of incorporated ^33P (substrate phosphorylation) was determined by scintillation measurement in a gamma radiation counter (Wallac).
The measured data were normalized to 0% inhibition (enzyme reaction without inhibitor) and 100% inhibition (all assay components except enzyme). The IC50 values were determined by means of a 4-parameter fit using the company's own software.

KDR kinase = molecular target: T2, KDR kinase (Homo sapiens, UniProt P35968); test: KDR kinase assay (HTRF); type: biochemical; conditions: KDR kinase-GST, 10 μM ATP
T2 construct: GST; purchased ProQinase GmbH, Freiburg; host or cells: baculovirus-infected insect cells (Sf9)
T2 sequence (P35968 807-1356 limits assumed): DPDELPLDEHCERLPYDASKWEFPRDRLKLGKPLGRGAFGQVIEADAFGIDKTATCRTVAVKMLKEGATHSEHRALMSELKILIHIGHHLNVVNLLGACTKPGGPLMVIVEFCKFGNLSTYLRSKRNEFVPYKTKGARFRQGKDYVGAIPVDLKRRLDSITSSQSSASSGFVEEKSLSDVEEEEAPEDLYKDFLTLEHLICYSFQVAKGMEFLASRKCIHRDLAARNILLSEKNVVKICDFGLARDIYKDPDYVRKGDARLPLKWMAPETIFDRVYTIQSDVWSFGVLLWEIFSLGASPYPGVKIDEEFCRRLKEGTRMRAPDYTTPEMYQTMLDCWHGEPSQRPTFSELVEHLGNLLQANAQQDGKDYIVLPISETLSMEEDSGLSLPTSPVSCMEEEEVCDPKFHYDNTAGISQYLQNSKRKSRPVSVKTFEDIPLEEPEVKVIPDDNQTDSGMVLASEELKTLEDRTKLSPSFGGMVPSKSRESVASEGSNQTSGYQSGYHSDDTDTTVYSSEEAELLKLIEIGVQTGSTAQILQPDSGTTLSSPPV
Description: The KDR-inhibitory activity of the substances of this invention was measured in the KDR-HTRF assay (HTRF=Homogeneous Time Resolved Fluorescence) described in the following paragraphs.
Recombinant KDR kinase-GST fusion protein purified from baculovirus-infected insect cells (Sf9) was purchased from ProQinase GmbH, Freiburg. The substrate used for the kinase reaction was the biotinylated peptide biotin-Ahx-DFGLARDMYDKEYYSVG (C terminus in acid form) which can be purchased for example from Biosynthan GmbH (Berlin-Buch, Germany).
KDR kinase was incubated in the presence of various concentrations of test substances in 5 μL of assay buffer [50 mM Hepes/NaOH pH 7.0, 25 mM MgCl2, 5 mM MnCl2, 1.0 mM dithiothreitol, 0.1 mM sodium orthovanadate, 10 μM adenosine triphosphate (ATP), 0.5 μM substrate, 0.001% (v/v) Nonidet-P40 (Sigma), 1% (v/v) dimethyl sulphoxide] at 22° C. for 45 min. The concentration of KDR was adapted to the particular activity of the enzyme and adjusted so that the assay operated in the linear range. The reaction was stopped by adding 5 μl of a solution of HTRF detection reagents (0.1 μM streptavidin-XLent and 2 nM PT66-Eu chelate, a Europium chelate-labelled anti-phospho-tyrosine antibody from Perkin Elmer) in aqueous EDTA solution (125 mM EDTA, 0.2% (w/v) bovine serum albumin (BSA) in 50 mM HEPES/NaOH pH 7.0).
The resulting mixture was incubated at 22° C. for 1 h in order to allow formation of the biotinylated phosphorylated substrate and the streptavidin-XLent and PT66-Eu chelate. The amount of phosphorylated substrate was then estimated by measuring the resonance energy transfer from the PT66-Eu chelate to the streptavidin-XLent. For this purpose, the fluorescence emissions at 620 nm and 665 nm after excitation at 350 nm were measured in an HTRF measuring instrument, e.g. a Rubystar (BMG Labtechnologies, Offenburg, Germany) or a Viewlux (Perkin-Elmer). The ratio of the emissions at 665 nm and at 622 nm was taken as a measure of the amount of phosphorylated substrate. The data were normalized (enzymic reaction without inhibitor=0% inhibition, all other assay components but no enzyme=100% inhibition) and IC50 values were calculated with a 4-parameter fit using an inhouse software.

SMILES	IC50 [1] [nM]	IC50 (CDK1/CycB) [nM]	IC50 (KDR kinase) [nM]
C[C@@H](O)[C@@H](C)Oc1nc(Nc2ccc(Nc3nccc(OCCO)n3)cc2)ncc1Br [Example 8, (2R,3R)-3-(5-Bromo-2-{4-[4-(2-hydroxyethoxy)pyrimidin-2-ylamino]-phenylamino}pyrimidin-4-yloxy)butan-2-ol]	30	28	44
C[C@@H](O)[C@@H](C)Oc1nc(Nc2ccc(Nc3ncccn3)cc2)ncc1Br [Example 15]	89	27	74
C[C@@H](O)[C@@H](C)Oc1nc(Nc2ccc(Nc3nccc(N)n3)cc2)ncc1Br [Example 16]	420	23	83
C[C@@H](O)[C@@H](C)Oc1nc(Nc2ccc(Nc3nccc(N(C)C)n3)cc2)ncc1Br [Example 17]	98	71	62
C[C@@H](O)[C@@H](C)Oc1nc(Nc2ccc(Nc3nccc(NCCN(C)C)n3)cc2)ncc1Br [Example 18]	170	40	140
Cc1cnc(Nc2ccc(Nc3ncc(Br)c(O[C@H](C)[C@@H](C)O)n3)cc2)nc1NCCO [Example 19]	290	51	100
C[C@@H](O)[C@@H](C)Oc1nc(Nc2ccc(Nc3ncc(Cl)c(NCCO)n3)cc2)ncc1Br [Example 21]	91	54	73
COc1ccnc(Nc2ccc(Nc3ncc(Br)c(O[C@H](C)[C@@H](C)O)n3)cc2)n1 [Example 22]	130	130	120
C[C@@H](O)[C@@H](C)Oc1nc(Nc2ccc(Nc3ncc(Br)cn3)cc2)ncc1Br [Example 24]	100	110	240
C[C@@H](O)[C@@H](C)Oc1nc(Nc2cccc(Nc3ncccn3)c2)ncc1Br [Example 25]	270	14	75
C[C@@H](O)[C@@H](C)Oc1nc(Nc2cccc(Nc3nccc(OCCO)n3)c2)ncc1Br [Example 27]	33	16	32
CSc1nc(Nc2ccc(Nc3ccccn3)cc2)ncc1Br [Example 29]	> 3000	> 1000	> 20000
CC(=O)NCCNc1nc(Nc2cccc(Nc3ncc(Br)c(NCCNC(C)=O)n3)c2)ncc1Br [Example 30]	2000	–	21
C[C@@H](O)[C@@H](C)Nc1nc(Nc2ccc(Oc3cccnc3)cc2)ncc1Br [Example 33]	270	78	50
C[C@@H](O)[C@@H](C)Nc1nc(Nc2ccc(Oc3ncccn3)cc2)ncc1Br [Example 34]	–	35	100
C[C@@H](O)[C@@H](C)Nc1nc(Nc2ccc(Sc3nncn3C)cc2)ncc1Br [Example 39]	–	11	41
C[C@@H](O)[C@@H](C)Sc1nc(Nc2ccc(Nc3ncc(Cl)c(NCCO)n3)cc2)ncc1Br [Example 44]	> 3000	> 1000	7300
